Values of other authors, collected in patent publication US20110144207A1, “ARYL ALKYL CARBOXYLIC ACID SALTS, PROCESS FOR PREPARATION AND DOSAGE FORMS” (SHASUN CHEMICALS AND DRUGS LIMITED, priority 2008, published 2011).
Structures can show the parent of a compound that is named as a salt. Where two headings read alike, the source gives them in different places.

Tests used:
[1] = as described in EP application 1149828
[2] = compared with conventional ibuprofen

## O=C(O)Cc1ccccc1Nc1c(Cl)cccc1Cl [diclofenac sodium salt]
[1]; sodium salt
  hygroscopic property: hygroscopic

## CC(C)Cc1ccc(C(C)C(=O)O)cc1.O.O.[Na] (stereo not shown) [ibuprofen sodium dihydrate, Ibuprofen Sodium Dihydrate]
[2]
  Cmax (peak concentration): significantly higher
  tmax (time to peak concentration): earlier

## O=C(O)Cc1ccccc1Nc1c(Cl)cccc1Cl [diclofenac sodium salt hemihydrate]
[1]; sodium salt hemihydrate
  hygroscopic property: no hygroscopic property
